What all share (type): biochemical
For one experiment, the system named is Noradrenaline reuptake. As to the kind of experiment: Reuptake of noradrenaline (NE), [3H]-NE uptake in synapses of rat hypothalamus. Particulars: in vitro, 20 min at 37° C. On the procedure: (§1) The uptake tests were carried out in vitro on rat synapses.
The basal activity is determined by incubating the same mixture for 20 min at 37° C. in the presence of 10 μM of protriptyline to block the reuptake.
Following incubation, the samples are rapidly filtered in vacuo through glass fibre filters (GB/B, Packard) and rinsed twice with ice-cold incubation buffer to eliminate free [^3H]-NE. The filters are dried and the radioactivity retained is measured by a scintillation counter (Topcount, Packard) using a scintillation cocktail (Microscint O, Packard).
(§2) The results are expressed as a percentage inhibition of the reuptake of the neurotransmitter evaluated.

For a further experiment, the system named is Serotonin reuptake. As to the kind of experiment: Reuptake of serotonin (5-HT), [3H]-serotonin uptake in rat brain synapses. Particulars: in vitro, synapses from rats' brains, 15 min at 37° C. Here is the method: as §1
The basal activity is determined by incubating the same mixture for 15 min at 37° C. in the presence of 10 μM imipramine to block the reuptake.
Following incubation, the samples are rapidly filtered in vacuo through glass fibre filters (GB/B, Packard) and rinsed twice with ice-cold incubation buffer to eliminate free [^3H]-serotonin. The filters are dried and the radioactivity retained is measured by a scintillation counter (Topcount, Packard) using a scintillation cocktail (Microscint O, Packard).
as §2

The subject of a further experiment is Dopamine reuptake. As to the kind of experiment: Reuptake of dopamine (DA), [3H]-DA uptake in synapses of rat striatum. Particulars: in vitro, 15 min at 37° C. Here is the method:
as §1
Following incubation, the samples are rapidly filtered in vacuo through glass fibre filters (GB/B, Packard) and rinsed twice with ice-cold incubation buffer to eliminate free [^3H]-dopamine. The filters are dried and the radioactivity retained is measured by a scintillation counter (Topcount, Packard) using a scintillation cocktail (Microscint O, Packard).
as §2

We go through two compounds from patent US20100286284A1, “5-[1'-(DECAHYDRO-7-HYDROXY-1,1,3A,7-TETRAMETHYL-1H-CYCLOPROPA[A]NAPHTHALEN-4-YL)-3'-METHYLBUTYL]-2,4,6-TRIHYDROXY-1,3-BENZENEDICARBOXALDEHYDE AS MEDICAMENTS” (Pierre Fabre Medicament, priority 2008, published 2010).

In the case of Hyperforin, the “IC50 Noradrenaline reuptake” value with Noradrenaline reuptake is 0.79 μg/ml of solution. The “IC50 Serotonin reuptake” value in the experiment with Serotonin reuptake is recorded as 0.89 μg/ml of solution. Further, the “IC50 Dopamine reuptake” value in the experiment with Dopamine reuptake is recorded as 0.23 μg/ml of solution.
Regarding `CC(C)C[C@@H](c1c(O)c(C=O)c(O)c(C=O)c1O)[C@@H]1CC[C@@](C)(O)[C@@H]2[C@@H]3C(CC[C@]21C)C3(C)C` (stereo partly drawn) [Macrocarpal L], the “IC50 Noradrenaline reuptake” value with Noradrenaline reuptake is 3.1 μg/ml of solution. In addition, in the experiment on Serotonin reuptake, the “IC50 Serotonin reuptake” value was 1.8 μg/ml of solution. Moreover, the “IC50 Dopamine reuptake” value in the experiment on Dopamine reuptake is listed as 1.0 μg/ml of solution.
